What was measured:
BEL-7402 cells = test: MTT antiproliferative assay, BEL-7402; format: cell-based, human; details: Homo sapiens, Bel-7402, 48 h, MTT, mean ± SD, n=3; for inhibition at 100 µM: read-out: % Growth Inhibition at 100 μM BEL-7402
Description: (§1) The antiproliferative activity of the target compounds against a normal L02 cell line and the three different human cancer cell lines viz. colorectal (HCT-116), liver (BEL-7402) and liver (HepG2) were evaluated using a standard MTT-based colorimetric assay. All cell lines were obtained from the Key Laboratory of Natural Resources and Functional Molecules of the Changbai Mountain (Yanbian University, Jilin, China) and maintained in Dulbecco’s modified Eagle’s medium (DMEM) and RPMI Media 1640 (RPMI1640), supplemented with 10% fetal bovine serum (FBS) at 37 °C in a humidified atmosphere containing 5% CO2.
(§2) Cells were plated in 96-well plates at appropriate densities to ensure exponential growth throughout the experimental period (9 × 10^3 cells per well) and then allowed to adhere for 24 h. Cells were then treated for 48 h with four serial concentrations (1, 10, 50 and 100 µM) of each compound. 5-fluorouracil (5-FU) was used as a positive control. After 48 h of incubation, 10 µL of MTT solution was added to each well to a final concentration of 2 mg/mL. Plates were then incubated for a further 4 h. After incubation, the MTT solution was removed and 150 µL of DMSO was added to each well for coloration. The plates were shaken vigorously for 10 min at room temperature to ensure complete solubilization. The optical density (OD) was read on a microplate reader (ELx800, BioTek, Highland Park, Winooski, VT, USA) at a wavelength of 492 nm and the data were subsequently analyzed. The percentage of cell growth inhibition was calculated from the following equation: Inhibitory rate (%) = [(1 − (ODtreated-ODblank)/(ODcontrol-ODblank)] × 100.(1)

HCT-116 cells = test: MTT antiproliferative assay, HCT-116; format: cell-based, human; details: Homo sapiens, HCT-116, 48 h, MTT, mean ± SD, n=3; for inhibition at 100 µM: read-out: % Growth Inhibition at 100 μM HCT-116
Description: as §1, §2

HepG2 cells = test: MTT antiproliferative assay, HepG2; format: cell-based, human; details: Homo sapiens, HepG2, 48 h, MTT, mean ± SD, n=3; for inhibition at 100 µM: read-out: % Growth Inhibition at 100 μM HepG2
Description: as §1, §2

L02 cells = test: MTT assay on normal liver cells L02; format: cell-based; details: Homo sapiens, normal liver cells, 48 h, MTT, Table 2, read-out: IC50 Values (μM) L02
Description: as §1
as §2, with “5-fluorouracil (5-FU) was used as a positive control.” left out

HeLa cells = details: read-out: IC50 against HeLa cells; cited from earlier work
HT29 cells = details: cell line printed as HT24 in b5; read-out: IC50 against HT24 cell line; cited from earlier work
AGS cells = details: read-out: IC50 against AGS cells; cited from earlier work
T24 cells = details: Figure 2; read-out: IC50 against T24 cells; cited from earlier work
HL-60 cells = system: HL-60 cells; parameters: method as in PMID 26653151, PMID 25405286; details: Figure 2; read-out: IC50 against HL-60 cells; cited from earlier work

## C[C@@]12CC[C@@H]3[C@@](CC[C@H]4[C@@]3(C)CCC[C@@]4(C)C(=O)OCC(=O)NCc3cn(-c4ccc(Cl)c(Cl)c4)nn3)(CC1=O)C2 [Compound 5e, 2-(((1-(3,4-dichlorophenyl)-1H-1,2,3-triazol-4-yl)methyl)amino)-2-oxoethyl(4R,4aS,6aR,9S,11aR,11bS)-4,9,11b-trimethyl-8-oxotetradecahydro-6a,9-methanocyclohepta[a]naphthalene-4-carboxylate]
other
  melting point: 96 to 97 °C
BEL-7402 cells
  inhibition at 100 µM: 68 ± 1.17%
  IC50: > 100 µM
HCT-116 cells
  inhibition at 100 µM: 71.14 ± 0.65%
  IC50: 14.3 ± 0.15 µM
HepG2 cells
  inhibition at 100 µM: 66.1 ± 0.97%
  IC50: 12.82 ± 0.09 µM
L02 cells
  IC50: > 100 µM

## CCOP(=O)(OCC)C(NC(=O)COC(=O)[C@]1(C)CCC[C@@]2(C)[C@@H]3CC[C@@]4(C)C[C@]3(CC[C@@H]21)CC4=O)c1ccc(OC)cc1 (stereo partly drawn) [Compound 6c, 2-(((diethoxyphosphoryl)(4-methoxyphenyl)methyl)amino)-2-oxoethyl(4R,4aS,6aR,9S,11aR,11bS)-4,9,11b-trimethyl-8-oxotetradecahydro-6a,9-methanocyclohepta[a]naphthalene-4-carboxylate]
other
  melting point: 134 to 135 °C
BEL-7402 cells
  inhibition at 100 µM: 50.9 ± 2.68%
  IC50: 92.6 ± 1.96 µM
HCT-116 cells
  inhibition at 100 µM: 74.1 ± 2.45%
  IC50: 15.15 ± 0.11 µM
HepG2 cells
  inhibition at 100 µM: 41.4 ± 1.86%
  IC50: > 100 µM
L02 cells
  IC50: > 100 µM

## CCOP(=O)(OCC)C(NC(=O)COC(=O)[C@]1(C)CCC[C@@]2(C)[C@@H]3CC[C@@]4(C)C[C@]3(CC[C@@H]21)CC4=O)c1ccc(C)cc1 (stereo partly drawn) [Compound 6d, 2-(((diethoxyphosphoryl)(p-tolyl)methyl)amino)-2-oxoethyl(4R,4aS,6aR,9S,11aR,11bS)-4,9,11b-trimethyl-8-oxotetradecahydro-6a,9-methanocyclohepta[a]naphthalene-4-carboxylate]
other
  melting point: 119 to 120 °C
BEL-7402 cells
  inhibition at 100 µM: 51.5 ± 0.68%
  IC50: 60.9 ± 1.37 µM
HCT-116 cells
  inhibition at 100 µM: 76.6 ± 2.33%
  IC50: 18.7 ± 0.17 µM
HepG2 cells
  inhibition at 100 µM: 80.64 ± 0.76%
  IC50: 13.2 ± 0.86 µM
L02 cells
  IC50: > 100 µM

## CC(=O)O[C@H]1CC[C@@]2(C)C(CC[C@]3(C)C2CC=C2C4[C@@H](C)[C@H](C)CC[C@]4(C(=O)Nc4ccccc4)CC[C@]23C)C1(C)C (some centres unmarked) [Compound A]
HeLa cells
  IC50: 1.63 µM

## CC(=O)O[C@H]1CC[C@@]2(C)C(CC[C@]3(C)C2CC=C2C4CC(C)(C)CC[C@]4(C(=O)NCCN4CCCC4)CC[C@]23C)C1(C)C (some centres unmarked) [Compound B]
HT29 cells
  IC50: 1.3 µM

## COC(=O)C(Cc1c[nH]c2ccccc12)NC(=O)[C@]1(C)CC[C@]2(C)CC[C@]3(C)C4=CC=C5C(=CC(=O)C(O)=C5C)[C@]4(C)CC[C@@]3(C)C2C1 (some centres unmarked) [Compound C]
AGS cells
  IC50: 0.44 µM

## CCOP(=O)(OCC)C(NC(=O)[C@]12CC[C@@H](C)[C@H](C)[C@H]1C1=CC[C@@H]3[C@@]4(C)C[C@@H](OC(C)=O)[C@H](OC(C)=O)[C@@](C)(COC(C)=O)[C@@H]4CC[C@@]3(C)[C@]1(C)CC2)c1ccccc1Cl (some centres unmarked) [Compound D]
T24 cells
  IC50: 6.59 µM

## COC(=O)[C@]1(C)CCC[C@@]2(C)[C@@H]3CC[C@@]4(C)C[C@@]3(C=C4c3cn(CCCc4ccccc4)nn3)CC[C@@H]21 [Compound E]
HL-60 cells
  IC50: 25.6 µM

Reference: paper PMC6337650 (Molecules, 2018)
